Results: patent US9744250B2, “Chemical model of a neurodegenerative disease, method for preparation and uses of same” (priority 2012, dated 2017)

Legend:
[1] = system: Sprague Dawley rats; experiment: EEG and sleep/arousal telemetry monitoring of exposed rats; assay type: in vivo, rat; details: 20 mg/kg/day oral 7 days
Source text: Male albino Sprague Dawley rats (adults weighing […]) were housed in a temperature-controlled room with free access to food and water.
A platform for electrophysiological and behavioral monitoring of the rats was used. For this, a subcutaneous implant (Data Science) was placed in the rats which allowed the EEG to be recorded by telemetry, leaving the animal completely free to move about. The cage was equipped with a video camera (10 frames per second) and an infrared light to allow recordation of the animal's activity. The EEG and video sequences were recorded in sequences of 10 seconds, and a set of variables was calculated for each sequence. The use of dedicated software allowed integration of these variables over the entire recording to detect changes in the animal's activity, EEG, and circadian rhythms. Each animal served as its own control because it was recorded for 5 days prior to furosemide pyridinium administration. The solution of furosemide pyridinium (20 mg) was dissolved in dimethylsulfoxide (DMSO, 200 μl) and then diluted with water (50 ml). The solution was replaced every day and administered for 7 days in the drinking water at a dose of 20 mg/kg. The rats were then sacrificed 5 weeks after the last dose. The rats were anesthetized with pentobarbital and infused intracardially with saline ([…]), then fixed with 4% paraformaldehyde. After the infusion, the brain was removed and placed in NaCl (0.9%) at 4° C. The brain was frozen in Tissue Tek immersed in a cold isopentane bath. Coronal sections of eight microns were obtained using a cryostat and were processed for immunocytochemistry (labeling the alpha-synuclein).

[2] = system: mitochondria isolated from rat cerebral cortex; experiment: Respiratory control (oxygen consumption, malate/pyruvate) of isolated cerebral cortex mitochondria; assay type: biochemical; details: increasing concentration
Method: (§1) The animal was then decapitated in order to collect from the brain either the cortex or the striatum, which were quickly placed in a Potter Elvejhem® containing 6 ml of extraction buffer at 4° C. (250 mM sucrose, 40 mM KCl, 2 mM EGTA, lmg/ml BSA, 20 mM Tris, pH=7.2). This mixture was homogenized to break open the cells and release the mitochondria and then centrifuged at 2000 g for 8 minutes to remove the larger membrane debris and the nuclei from the pellet. The supernatant was then recovered and centrifuged at 13,000 g for 11 minutes. The supernatant was discarded while the pellet containing a mitochondria-rich fraction was resuspended in 500 μl of respiration buffer at 4° C. (300 mM D-mannitol, 10 mM KCl, 10 mM KH2PO4, 5 mM MgCl2, pH=7.2). […]
Added to the polarography chamber (Hansatech) were 30 μl of mitochondria solution (0.2 mg), 460 μL of respiration buffer, 5 μl of test compound solution (meaning MPP+ or furosemide pyridinium) (or its solubilizing solvent). […] The effect of the compound on respiratory control was evaluated (ratio of stage 3 to 4), which corresponds to the coupling of the respiratory chain, or in other words the ATP synthesis at complex V and the oxygen consumption due to complexes I to IV. The results are expressed as percentages of the value measured for mitochondria not treated with the test compound (but treated with the solubilizing solvent).

[3] = system: respiratory chain complexes II-V of rat cerebral cortex mitochondria; experiment: Respiratory control after induction of complex II by succinate and inhibition of complex I by rotenone; assay type: biochemical; details: 1 mM, succinate
Method: as §1
Added to the polarography chamber (Hansatech) were 30 μl of mitochondria solution (0.2 mg), 460 μL of respiration buffer, 5 μl of test compound solution (meaning MPP+ or furosemide pyridinium) (or its solubilizing solvent). […] The effect of the compound on respiratory control was evaluated (ratio of stage 3 to 4), which corresponds to the coupling of the respiratory chain, or in other words the ATP synthesis at complex V and the oxygen consumption due to complexes I to IV. The results are expressed as percentages of the value measured for mitochondria not treated with the test compound (but treated with the solubilizing solvent). […]

SMILES: NS(=O)(=O)c1cc(C(=O)[O-])c(-[n+]2cccc(O)c2)cc1Cl [furosemide pyridinium, 4-chloro-2-(3-hydroxypyridinium-1-yl)-5-sulfamoylbenzoate]
- increase in number of REM sleep phases ([1]; five weeks after end of exposure): 2 ×
- sleep and arousal phases ([1]; five weeks after end of treatment): do not indicate changes
- amplitude of the electroencephalogram ([1]; five weeks after end of treatment vs before exposure): significant decrease
- respiratory control of cerebral cortex mitochondria induced by malate/pyruvate [2]: diminished
- respiratory control of cortex mitochondria after induction by complex II [3]: not modified
